Series [1] has as its target c-MET (Homo sapiens, UniProt P08581). Put plainly: Cell-free kinase activity assay (Caliper Mobility Shift Assay). Format: biochemical. Particulars: ATP at Km; mean of 3-5 independent tests.
Protocol: (§3) Compounds were performed with caliper mobility shift assay for RTK inhibition, and the IC50 values were calculated using conversion rates. The data were shown as a mean of 3-5 independent tests.
(§4) The activity of tyrosine kinase including FGFR1, FGFR2, FGFR3, EGFR, VEGFR-2, c-MET, and PDGFR-β were tested by Caliper Mobility Shift Assay on Caliper EZ reader (Caliper Life Sciences, MA) according to the instructions provided. […] For each kinase assay, the ATP concentration used in the assay was set at the Km value of the corresponding kinase. […] In the electrophoretic mobility shift assays, product accumulation was expressed as percentage conversion, product peak height/(product peak height + substrate peak height).
Series [2] has as its target T1, FGFR2 (Homo sapiens, UniProt P21802).
T1 construct: purchased Carna Biosciences Inc. (Kobe, Japan)
Described as above. It is filed as biochemical.
Protocol: as §3, §4

Series [3] addresses T2, EGFR (Homo sapiens, UniProt P00533).
T2 construct: purchased Carna Biosciences Inc. (Kobe, Japan)
Described as above. It is filed as biochemical. Particulars: ATP at Km; mean of 3-5 independent tests.
Protocol: as §3, §4

Series [4] concerns H460 cells. Put plainly: MTT anti-proliferation assay. It is filed as cell-based, human. Particulars: for IC50: Homo sapiens, NCI-H460, 72 h, read-out: IC50 against H460 cells (MTT); for Time-course cell survival (MTT): 20 μM, 0-72 h. On the procedure: (§1) Figure 3 […]25 inhibited proliferation and induced apoptosis in H460 cells (A) H460 cells were pretreated with compounds at indicated concentrations, followed by the treatment with bFGF (30 ng/mL) for 10 min. The phosphorylation level of FGFR1 in cell lysates was measured by western blot analysis. The column figures show the normalized optical density as a percentage of total FGFR1 control. (B) H460 cells were treated with compounds at concentrations (0.74, 2.22, 6.67, 20, and 60 μM) for 72 h. The MTT assay gives the respective IC50 values of compounds. (C) The time-course cell survival profile of H460 cells treated by compounds at 20 μM was detected through an MTT assay. (D) Effects of […]25 on caspase activation in H460 cells. […] The levels of cleaved caspase-3 and cleaved caspase-9 were determined by western blot analysis.
(Formazan colour is commonly taken as a measure of viable cells.)

Series [5] addresses T3, VEGFR2 (Homo sapiens, UniProt P35968).
T3 construct: purchased Carna Biosciences Inc. (Kobe, Japan)
Briefly: Cell-free kinase activity assay (Caliper Mobility Shift Assay). It is filed as biochemical. Particulars: ATP at Km; mean of 3-5 independent tests.
Protocol: as §3, §4

For series [6], the target named is T4, FGFR1 (Homo sapiens, UniProt P11362).
T4 construct: purchased Carna Biosciences Inc. (Kobe, Japan)
T4 sequence (P11362 22-822): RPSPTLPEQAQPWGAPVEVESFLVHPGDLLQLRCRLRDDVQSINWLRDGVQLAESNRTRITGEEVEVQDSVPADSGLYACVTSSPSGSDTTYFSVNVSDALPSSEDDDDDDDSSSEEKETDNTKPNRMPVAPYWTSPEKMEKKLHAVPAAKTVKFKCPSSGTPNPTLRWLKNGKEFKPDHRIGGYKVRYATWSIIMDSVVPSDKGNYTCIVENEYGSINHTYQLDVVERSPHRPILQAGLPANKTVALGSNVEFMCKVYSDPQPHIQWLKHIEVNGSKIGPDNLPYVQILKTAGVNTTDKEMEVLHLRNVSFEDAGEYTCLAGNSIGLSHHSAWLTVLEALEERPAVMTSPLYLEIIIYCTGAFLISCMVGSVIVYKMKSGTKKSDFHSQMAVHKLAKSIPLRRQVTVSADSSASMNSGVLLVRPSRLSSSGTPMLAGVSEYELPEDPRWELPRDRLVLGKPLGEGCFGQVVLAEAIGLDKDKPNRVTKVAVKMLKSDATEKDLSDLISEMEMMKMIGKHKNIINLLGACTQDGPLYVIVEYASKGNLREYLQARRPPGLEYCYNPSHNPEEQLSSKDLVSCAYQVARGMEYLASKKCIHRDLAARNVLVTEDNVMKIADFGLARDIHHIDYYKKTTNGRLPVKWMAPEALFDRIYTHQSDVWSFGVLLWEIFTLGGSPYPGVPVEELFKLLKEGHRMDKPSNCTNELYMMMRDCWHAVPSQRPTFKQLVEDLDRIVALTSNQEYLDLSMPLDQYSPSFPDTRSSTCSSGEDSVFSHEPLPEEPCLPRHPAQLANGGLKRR
The series is described as above. Format: biochemical. The note with it: ATP at Km; mean of 3-5 independent tests.
Protocol: as §3, §4

Series [7] concerns the target T4, FGFR1. Briefly: ATP competitive inhibition assay (caliper mobility shift assay). Format: biochemical. The note with it: ATP 33-4192 μM, substrate constant.
Protocol: In the experiments for testing the relationship between the compounds and ATP, the concentration of the substrate was constant, while the concentrations of ATP were set at 4192, 2096, 1048, 524, 262, 131, 66, and33 μM. The global competitive inhibition fit for the compounds was performed based on percent conversion = (Vmax*X)/{km*[([1] + I/Ki)^n] + X}, where X is the ATP concentration, and n is the Hill coefficient.
Series [8] addresses T5, PDGFRβ (Homo sapiens, UniProt P09619).
T5 construct: purchased Carna Biosciences Inc. (Kobe, Japan)
Put plainly: Cell-free kinase activity assay (Caliper Mobility Shift Assay). Particulars: ATP at Km; mean of 3-5 independent tests. It is filed as biochemical.
Protocol: as §3, §4

The target of series [9] is T6, FGFR3 (Homo sapiens, UniProt P22607).
T6 construct: purchased Carna Biosciences Inc. (Kobe, Japan)
T6 sequence (P22607 23-806): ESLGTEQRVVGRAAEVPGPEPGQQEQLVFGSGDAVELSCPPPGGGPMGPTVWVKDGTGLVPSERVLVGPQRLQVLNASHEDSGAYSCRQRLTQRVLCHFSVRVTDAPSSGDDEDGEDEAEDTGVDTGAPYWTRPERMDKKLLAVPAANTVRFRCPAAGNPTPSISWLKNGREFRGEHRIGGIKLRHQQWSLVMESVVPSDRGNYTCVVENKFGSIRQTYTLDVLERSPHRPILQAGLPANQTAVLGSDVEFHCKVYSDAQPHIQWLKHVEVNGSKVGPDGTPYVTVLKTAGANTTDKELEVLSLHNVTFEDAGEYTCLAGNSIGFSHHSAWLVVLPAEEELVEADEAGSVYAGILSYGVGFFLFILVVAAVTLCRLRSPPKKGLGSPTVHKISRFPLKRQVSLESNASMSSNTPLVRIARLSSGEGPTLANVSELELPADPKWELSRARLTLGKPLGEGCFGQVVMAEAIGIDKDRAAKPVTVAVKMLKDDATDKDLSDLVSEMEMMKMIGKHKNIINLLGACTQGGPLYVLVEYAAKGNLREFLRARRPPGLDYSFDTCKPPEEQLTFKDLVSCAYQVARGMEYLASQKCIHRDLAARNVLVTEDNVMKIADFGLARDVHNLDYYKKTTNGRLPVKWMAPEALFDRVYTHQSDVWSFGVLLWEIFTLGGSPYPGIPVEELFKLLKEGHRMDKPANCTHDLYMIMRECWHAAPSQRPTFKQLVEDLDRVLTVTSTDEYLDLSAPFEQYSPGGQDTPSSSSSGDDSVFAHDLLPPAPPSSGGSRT
The series is described as above. Format: biochemical.
Protocol: as §3, §4

In series [10] the test system is H460 cells. Put plainly: bFGF-induced phosphorylation of FGFR1, western blot. It is filed as cell-based, human. The note with it: bFGF 30 ng/mL for 10 min, pretreatment with compound. How it is done: as §1
On the technique in general: In western blotting, separated proteins are transferred to a membrane and probed.

Series [11] concerns H460 xenograft tumor tissue. Put plainly: Protein levels in xenograft tumor tissue (western blot, immunohistochemistry). The note with it: 3 mg/kg/d i.p.; for Phosphorylated FGFR1 in tumor tissue (western blot): compared to untreated group; for Expression of Bcl-2, Cyclin D1 and cox-2 in tumor tissue (immunohistochemistry): compared with model group. Format: in vivo, BALB/cA nude mice. How it is done: (§2) Figure 4 Anti-tumor effects of compounds […] H460 xenograft models Xenografts were established in nude mice. […] (A) Tumor volume (mm^3) and (B) Tumor weight (g) were recorded (* P <0.05, ** P < 0.01). (C) Body weight of each mice was recorded. (D) pFGFR1 expressions in tumor tissues were detected by Western Blot with FGFR1 as internal control. (E) The levels of p-ERK, p-AKT, Bcl-2, CyclinD1, and COX-2 in tumor tissues were detected by immunohistochemical staining. Representative pictures are shown.

A short description of series [12]: Body weight of mice in H460 xenograft study. It is filed as in vivo, BALB/cA nude mice. The note with it: for Change of body weight during treatment: 3 mg/kg/d i.p. for 28 days; for Body weight: 3 mg/kg/d i.p., in g (unit assumed). How it is done: as §2
In series [13] the test system is H460 xenograft. Briefly: In vivo anti-tumor study, H460 xenograft. On the set-up: species or system BALB/cA nude mice. The note with it: for Tumor weight inhibition rate: 3 mg/kg/d i.p. once daily for 28 days; for Tumor volume: 3 mg/kg/d i.p., 28th day, compared to model group. On the procedure: as §2
Series [14] has as its system H460 cells. Put plainly: Caspase activation (cleaved caspase-3 and -9), western blot. It is filed as cell-based, human. Particulars: 10 μM, 12 h. How it is done:
as §1

Series [15] deals with FGFR1-overexpressing HEK293 cells. Briefly: bFGF-induced phosphorylation of FGFR1 and ERK, western blot. It is filed as cell-based. The note with it: bFGF 30 ng/mL for 10 min, pretreatment with compound.
Protocol: (C and D) FGFR1 over-expressing 293 cells were pretreated with compounds at indicated concentrations or vehicle (0.1% DMSO), respectively. Then, cells were stimulated with bFGF (30 ng/mL) for 10 min, and the phosphorylation level of FGFR1 and ERK in cell lysates was measured by western blot analysis. The figures were representative of 3 separate experiments (C). […] Statistical significance relative to bFGF alone group was expressed, * P <0.05, ** P < 0.01.
Cells or homogenated tumor tissues were lysated. The protein concentrations in all samples were determined by using the Bradford protein assay kit (Bio-Rad, Hercules, CA). The supernatant was run on 10% SDS-PAGE gel followed by being transferred to a PVDF membrane. After being blocked with 5% non-fat dry milk in TBST for 1.5h, the membrane was incubated with the primary antibody overnight followed by incubation with goat anti-rabbit IgG, HRP-linked antibody for 1 h. The blots were detected with an ECL detection kit (Bio-Rad, Hercules, CA) according to the manufacturer's procedure. The results were analyzed by Quantity One software to determine the relative band density ratio.
The subject of series [16] is H460 cells. Briefly: Apoptosis analysis, Annexin V/PI flow cytometry. Format: cell-based, human. Particulars: 2.5, 5, 10 μM. In general terms: In flow cytometry, cells or beads pass a laser one at a time.

Broadly, the IC50 is the concentration at which inhibition is half-maximal.

Where “and” joins values, the source holds several entries; their conditions need not be identical. Equal entries are not always repeated. Where two headings read alike, the source gives them in different places. Some results are limits rather than exact numbers.

T5 sequence (P09619 33-1106): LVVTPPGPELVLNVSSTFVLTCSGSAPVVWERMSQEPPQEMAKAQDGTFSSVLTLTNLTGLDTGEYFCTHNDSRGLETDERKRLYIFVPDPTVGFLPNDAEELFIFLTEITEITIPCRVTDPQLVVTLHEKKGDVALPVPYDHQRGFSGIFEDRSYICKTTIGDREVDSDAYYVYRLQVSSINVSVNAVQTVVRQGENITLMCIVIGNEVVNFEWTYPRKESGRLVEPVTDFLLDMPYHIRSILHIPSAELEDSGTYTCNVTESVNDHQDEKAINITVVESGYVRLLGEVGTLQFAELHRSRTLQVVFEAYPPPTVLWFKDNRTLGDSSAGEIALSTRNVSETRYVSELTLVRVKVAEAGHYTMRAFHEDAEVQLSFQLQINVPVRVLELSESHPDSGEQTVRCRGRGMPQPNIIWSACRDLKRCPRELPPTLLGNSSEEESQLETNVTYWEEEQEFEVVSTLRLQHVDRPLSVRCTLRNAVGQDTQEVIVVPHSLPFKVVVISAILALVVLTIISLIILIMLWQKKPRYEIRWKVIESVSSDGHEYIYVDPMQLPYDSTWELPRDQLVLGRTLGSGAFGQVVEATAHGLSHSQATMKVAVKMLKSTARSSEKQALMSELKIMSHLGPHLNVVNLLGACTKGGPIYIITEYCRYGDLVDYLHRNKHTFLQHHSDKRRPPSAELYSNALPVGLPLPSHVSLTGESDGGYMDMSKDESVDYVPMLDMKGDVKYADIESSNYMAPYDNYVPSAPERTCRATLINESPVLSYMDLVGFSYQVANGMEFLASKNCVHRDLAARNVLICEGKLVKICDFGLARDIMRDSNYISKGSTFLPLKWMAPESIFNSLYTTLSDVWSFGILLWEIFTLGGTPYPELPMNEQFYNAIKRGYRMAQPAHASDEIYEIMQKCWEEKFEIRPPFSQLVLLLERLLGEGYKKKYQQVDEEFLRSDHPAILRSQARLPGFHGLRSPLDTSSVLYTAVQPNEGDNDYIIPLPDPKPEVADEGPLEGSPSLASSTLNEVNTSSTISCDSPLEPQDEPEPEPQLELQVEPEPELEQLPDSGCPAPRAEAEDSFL
Chain of c-MET (P08581 25-1390): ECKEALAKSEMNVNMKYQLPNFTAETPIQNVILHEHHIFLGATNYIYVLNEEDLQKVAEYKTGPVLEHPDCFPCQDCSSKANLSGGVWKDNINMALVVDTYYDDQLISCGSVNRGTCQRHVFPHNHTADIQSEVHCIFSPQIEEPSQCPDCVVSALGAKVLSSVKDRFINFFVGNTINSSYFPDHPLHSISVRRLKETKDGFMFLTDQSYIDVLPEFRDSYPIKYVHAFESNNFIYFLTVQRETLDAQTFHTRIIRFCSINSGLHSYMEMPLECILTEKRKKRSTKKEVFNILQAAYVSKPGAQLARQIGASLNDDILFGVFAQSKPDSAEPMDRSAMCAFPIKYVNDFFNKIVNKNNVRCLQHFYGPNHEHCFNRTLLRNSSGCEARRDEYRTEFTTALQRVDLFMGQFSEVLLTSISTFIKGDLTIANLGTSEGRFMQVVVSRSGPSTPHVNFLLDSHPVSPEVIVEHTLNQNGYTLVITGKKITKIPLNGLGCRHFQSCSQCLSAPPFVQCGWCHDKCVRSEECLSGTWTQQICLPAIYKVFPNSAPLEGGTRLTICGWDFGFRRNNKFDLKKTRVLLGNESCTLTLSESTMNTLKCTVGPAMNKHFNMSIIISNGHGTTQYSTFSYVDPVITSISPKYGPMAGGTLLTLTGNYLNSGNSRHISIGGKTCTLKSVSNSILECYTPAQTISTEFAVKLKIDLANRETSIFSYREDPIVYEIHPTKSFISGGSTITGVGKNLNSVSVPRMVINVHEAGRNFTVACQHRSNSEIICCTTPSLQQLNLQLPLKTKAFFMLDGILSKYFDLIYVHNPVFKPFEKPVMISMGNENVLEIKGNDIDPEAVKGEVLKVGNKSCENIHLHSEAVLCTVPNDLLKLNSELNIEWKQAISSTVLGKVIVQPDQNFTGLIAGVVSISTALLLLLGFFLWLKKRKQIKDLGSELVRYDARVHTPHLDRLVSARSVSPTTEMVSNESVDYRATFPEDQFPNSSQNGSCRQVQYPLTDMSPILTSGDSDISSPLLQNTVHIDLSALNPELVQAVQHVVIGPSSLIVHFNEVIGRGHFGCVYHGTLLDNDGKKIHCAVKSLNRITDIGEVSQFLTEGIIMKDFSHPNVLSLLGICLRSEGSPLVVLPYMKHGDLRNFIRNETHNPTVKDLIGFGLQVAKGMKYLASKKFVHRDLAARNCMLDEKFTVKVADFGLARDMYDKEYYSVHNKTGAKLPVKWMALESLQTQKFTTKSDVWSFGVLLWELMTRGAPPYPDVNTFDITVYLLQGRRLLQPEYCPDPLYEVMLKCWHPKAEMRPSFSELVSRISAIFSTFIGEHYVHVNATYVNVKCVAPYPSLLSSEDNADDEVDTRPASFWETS
T1 sequence (P21802 22-821): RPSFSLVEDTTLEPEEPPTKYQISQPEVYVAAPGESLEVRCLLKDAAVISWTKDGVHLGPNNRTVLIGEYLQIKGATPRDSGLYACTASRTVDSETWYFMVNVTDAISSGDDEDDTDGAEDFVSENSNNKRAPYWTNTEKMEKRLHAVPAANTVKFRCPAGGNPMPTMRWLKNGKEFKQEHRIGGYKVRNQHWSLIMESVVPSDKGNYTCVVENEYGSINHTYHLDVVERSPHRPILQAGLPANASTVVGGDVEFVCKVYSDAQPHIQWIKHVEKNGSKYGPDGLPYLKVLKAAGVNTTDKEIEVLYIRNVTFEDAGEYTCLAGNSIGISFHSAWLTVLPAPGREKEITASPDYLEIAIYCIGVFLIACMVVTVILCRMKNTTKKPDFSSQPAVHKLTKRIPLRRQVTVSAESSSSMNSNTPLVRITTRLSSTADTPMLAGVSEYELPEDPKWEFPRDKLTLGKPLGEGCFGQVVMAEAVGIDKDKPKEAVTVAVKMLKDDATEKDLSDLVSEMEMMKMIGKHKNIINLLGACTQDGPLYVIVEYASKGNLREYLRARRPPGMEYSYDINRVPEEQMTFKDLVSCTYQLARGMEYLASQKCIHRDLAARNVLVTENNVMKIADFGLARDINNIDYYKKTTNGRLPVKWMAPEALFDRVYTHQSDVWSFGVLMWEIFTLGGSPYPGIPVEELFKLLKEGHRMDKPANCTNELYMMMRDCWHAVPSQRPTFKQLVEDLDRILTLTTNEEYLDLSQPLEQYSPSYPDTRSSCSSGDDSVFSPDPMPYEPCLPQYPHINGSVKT

In the case of `C[C@H](Cc1ccc(O)c(O)c1)[C@@H](C)Cc1ccc(O)c(O)c1` [NDGA, Nordihydroguaiaretic acid, reference compound], the IC50 in series [1] is more than 100 µM; in series [2] (ATP at Km, mean of 3-5 independent tests, read-out: IC50 FGFR2), more than 100 µM; in series [3] it was 89.9 µM; in series [4], 15.6 ± 1.2 µM; in [5], more than 100 µM; in [6], 24.5 µM. Moreover, the IC50 in series [8] is more than 100 µM; in series [9] (ATP at Km, mean of 3-5 independent tests, read-out: IC50 FGFR3), 72.4 µM. Besides, in [7], the “Effect of increased ATP concentration on FGFR1 inhibition (mode of inhibition)” value is “did not affect the rate of FGFR1 substrate phosphorylation”.
For `O=C1/C(=C/c2ccccc2Cl)CNC/C1=C\c1ccccc1Cl` [Aea4], the “Phosphorylation of FGFR1” value in series [10] is recorded as “inhibited this effect in a dose-dependent fashion”. In addition, in series [11], the “Phosphorylated FGFR1 in tumor tissue (western blot)” value was “decreased expression of phosphorylated FGFR1”; the “Expression of Bcl-2, Cyclin D1 and cox-2 in tumor tissue (immunohistochemistry)” value was “effectively restrained the expression of Bcl-2, Cyclin D1 and cox-2”. Further, in [4], the “Time-course cell survival (MTT)” value was “inhibit cell proliferation and increase cell death of H460 time-dependently”; the IC50 came to 5 µM. Moreover, in series [12], the “Change of body weight during treatment” value is “no obvious change”. Besides, the Body weight in series [12] (Week 1st) is 23.37 ± 0.73. The compound further showed a Body weight in series [12] (Week 2nd) of 24.94 ± 0.83. In series [12] (Week 3rd), this compound registered a Body weight of 25.81 ± 0.85. For the same compound, the Body weight in series [12] (Week 4th) worked out at 24.94 ± 0.79. Also, in series [13], the “Tumor weight inhibition rate” value is reported as 55.0% and the Tumor volume result is on record as “significant reduction in tumor volume at the 28th day”. In addition, the “Expression of cleaved caspase 3 and 9” value in [14] is “significantly increased”. Besides, the “Phosphorylation of FGFR1 and ERK” value in series [15] is “inhibited their phosphorylation of FGFR1 and ERK in a dose-dependent manner”. The Apoptotic cell rate result in series [16] is given as “induced H460 cell apoptosis in a dose-dependent manner”.
As to `O=C1/C(=C/c2ccccc2Br)CNC/C1=C\c1ccccc1Br` [Aea25], the IC50 in [1] is 8.2 µM; in series [2] it was 43.3 µM; in [3], 33.3 µM; in [4], 5.8 µM; in series [5], 28.6 µM; in series [6], 8.8 µM and 6.5 µM. The IC50 in series [8] was found to be 84 µM; in series [9] it was 43.2 µM. Moreover, the “Phosphorylation of FGFR1” value in [10] is listed as “inhibited this effect in a dose-dependent fashion”. Besides, the “Phosphorylated FGFR1 in tumor tissue (western blot)” value in [11] is reported as “decreased expression of phosphorylated FGFR1”. Also, the “Expression of Bcl-2, Cyclin D1 and cox-2 in tumor tissue (immunohistochemistry)” value in series [11] is “effectively restrained the expression of Bcl-2, Cyclin D1 and cox-2”. Also, in series [4], the “Time-course cell survival (MTT)” value was “inhibit cell proliferation and increase cell death of H460 time-dependently”. For the same compound, the “Change of body weight during treatment” value in [12] was “no obvious change”. Further, the Body weight in [12] (Week 1st) stood at 22.01 ± 0.75; in series [12] (Week 2nd), 24.02 ± 0.53; in series [12] (Week 3rd) it was 25.26 ± 0.38; in series [12] (Week 4th), 25.36 ± 0.51. Further, the “Tumor weight inhibition rate” value in series [13] is recorded as 66.5%. Also, in series [13], the Tumor volume entry is recorded as “significant reduction in tumor volume at the 28th day”. Also, in series [7], the “Effect of increased ATP concentration on FGFR1 inhibition (mode of inhibition)” value is given as “ATP independent manner”. Further, the “Expression of cleaved caspase 3 and 9” value in series [14] was “significantly increased”. Further, in [15], the “Phosphorylation of FGFR1 and ERK” value was “inhibited their phosphorylation of FGFR1 and ERK in a dose-dependent manner”. Also, the Apoptotic cell rate entry in series [16] is recorded as “induced H460 cell apoptosis in a dose-dependent manner”.

Source of the values: publication PMC4147344, “Discovery of novel non-ATP competitive FGFR1 inhibitors and evaluation of their anti-tumor activity in non-small cell lung cancer in vitro and in vivo” (Oncotarget, 2014).
